Laboratory results reported in US12398140B2, “Substituted pyrrolo [2,3-d]pyrimidines for treating familial dysautonomia” (PTC THERAPEUTICS, INC., priority 2019, dated 2025).

System: Elongator complex protein 1 (ELPI, also referred to as IKBKAP)
Test: IKBKAP-HTRF assay (IKBKAP protein in lysates of FD patient-derived fibroblasts)
Type: cell-based, human
Settings: FD patient-derived fibroblasts GM04589, 48 hours, 7-point concentration curve
In short: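 FD patient-derived fibroblasts (10,000/well) treated 48 h at 37 °C with compound across a 7-point 3.16-fold series, in triplicate; lysates assayed by sandwich HTRF with two anti-IKAP antibodies, overnight at 4 °C, 665/620 nm read. MFI = ΔF over vehicle; EC2x = concentration doubling IKBKAP protein versus DMSO.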

For `C[C@H](N)Cc1c(F)c2c(NCc3cncs3)nc(Cl)nc2n1C.Cl.Cl` [Cpd 48, 6-[(2S)-2-aminopropyl]-2-chloro-5-fluoro-7-methyl-N-[(1,3-thiazol-5-yl)methyl]-7H-pyrrolo[2,3-d]pyrimidin-4-amine dihydrochloride], the “EC2x for IKBKAP protein expression (concentration producing two times the amount of IKBKAP protein vs DMSO vehicle control)” value was “* (An EC2x>1 μM is indicated by one star (*))” and the “MFI (maximum fold increase in IKBKAP protein abundance relative to the vehicle control)” value was “* (An MFI≤1.9 is indicated by one star (*))”.
With `C[C@H](N)Cc1c(F)c2c(NCc3cccs3)nc(Cl)nc2n1C.Cl` [Cpd 49, 6-[(2S)-2-aminopropyl]-2-chloro-5-fluoro-7-methyl-N-[(thiophen-2-yl)methyl]-7H-pyrrolo[2,3-d]pyrimidin-4-amine hydrochloride] the “EC2x for IKBKAP protein expression (concentration producing two times the amount of IKBKAP protein vs DMSO vehicle control)” value was “**** (between >0.005 μM and ≤0.02 μM is indicated by four stars (****))” and the “MFI (maximum fold increase in IKBKAP protein abundance relative to the vehicle control)” value was “***** (>4.9 is indicated by five stars (*****))”.
In the case of `C[C@H](N)Cc1[nH]c2nc(Cl)nc(NCc3ccccc3)c2c1F.Cl` [Cpd 50, 6-[(2S)-2-aminopropyl]-N-benzyl-2-chloro-5-fluoro-7H-pyrrolo[2,3-d]pyrimidin-4-amine hydrochloride], the “EC2x for IKBKAP protein expression (concentration producing two times the amount of IKBKAP protein vs DMSO vehicle control)” value is reported as “*** (between >0.02 μM and ≤0.5 μM is indicated by three stars (***))” and the “MFI (maximum fold increase in IKBKAP protein abundance relative to the vehicle control)” value is reported as “*** (between >2.9 and ≤3.9 is indicated by three stars (***))”.
For `C[C@H](N)Cc1c(F)c2c(NCc3ccccc3)nc(Cl)nc2n1C.Cl` [Cpd 51, 6-[(2S)-2-aminopropyl]-N-benzyl-2-chloro-5-fluoro-7-methyl-7H-pyrrolo[2,3-d]pyrimidin-4-amine hydrochloride], the “EC2x for IKBKAP protein expression (concentration producing two times the amount of IKBKAP protein vs DMSO vehicle control)” value was “*** (between >0.02 μM and ≤0.5 μM is indicated by three stars (***))” and the “MFI (maximum fold increase in IKBKAP protein abundance relative to the vehicle control)” value was “*** (between >2.9 and ≤3.9 is indicated by three stars (***))”.
In the case of `C[C@H](N)Cc1[nH]c2nc(Cl)nc(NCc3ccccc3F)c2c1F.Cl` [Cpd 52, 6-[(2S)-2-aminopropyl]-2-chloro-5-fluoro-N-[(2-fluorophenyl)methyl]-7H-pyrrolo[2,3-d]pyrimidin-4-amine hydrochloride], the “EC2x for IKBKAP protein expression (concentration producing two times the amount of IKBKAP protein vs DMSO vehicle control)” value is reported as “*** (between >0.02 μM and ≤0.5 μM is indicated by three stars (***))” and the “MFI (maximum fold increase in IKBKAP protein abundance relative to the vehicle control)” value is reported as “**** (between >3.9 and ≤4.9 is indicated by four stars (****))”.
With `C[C@H](N)Cc1c(F)c2c(NCc3ccccc3F)nc(Cl)nc2n1C.Cl` [Cpd 53, 6-[(2S)-2-aminopropyl]-2-chloro-5-fluoro-N-[(2-fluorophenyl)methyl]-7-methyl-7H-pyrrolo[2,3-d]pyrimidin-4-amine hydrochloride] the “EC2x for IKBKAP protein expression (concentration producing two times the amount of IKBKAP protein vs DMSO vehicle control)” value was “*** (between >0.02 μM and ≤0.5 μM is indicated by three stars (***))” and the “MFI (maximum fold increase in IKBKAP protein abundance relative to the vehicle control)” value was “**** (between >3.9 and ≤4.9 is indicated by four stars (****))”.
For `C[C@H](N)Cc1[nH]c2nc(Cl)nc(NCc3ccccn3)c2c1F.Cl.Cl` [Cpd 54, 6-[(2S)-2-aminopropyl]-2-chloro-5-fluoro-N-[(pyridin-2-yl)methyl]-7H-pyrrolo[2,3-d]pyrimidin-4-amine dihydrochloride], the “EC2x for IKBKAP protein expression (concentration producing two times the amount of IKBKAP protein vs DMSO vehicle control)” value was “*** (between >0.02 μM and ≤0.5 μM is indicated by three stars (***))” and the “MFI (maximum fold increase in IKBKAP protein abundance relative to the vehicle control)” value was “** (between >1.9 and ≤2.9 is indicated by two stars (**))”.
`C[C@H](N)Cc1c(F)c2c(NCc3ccccn3)nc(Cl)nc2n1C.Cl.Cl` [Cpd 55, 6-[(2S)-2-aminopropyl]-2-chloro-5-fluoro-7-methyl-N-[(pyridin-2-yl)methyl]-7H-pyrrolo[2,3-d]pyrimidin-4-amine dihydrochloride] was tested, and the “EC2x for IKBKAP protein expression (concentration producing two times the amount of IKBKAP protein vs DMSO vehicle control)” value was “* (An EC2x>1 μM is indicated by one star (*))” and the “MFI (maximum fold increase in IKBKAP protein abundance relative to the vehicle control)” value was “* (An MFI≤1.9 is indicated by one star (*))”.
With `C[C@H](N)Cc1[nH]c2nc(Cl)nc(NCc3cccnc3)c2c1F.Cl.Cl` [Cpd 56, 6-[(2S)-2-aminopropyl]-2-chloro-5-fluoro-N-[(pyridin-3-yl)methyl]-7H-pyrrolo[2,3-d]pyrimidin-4-amine dihydrochloride] the “EC2x for IKBKAP protein expression (concentration producing two times the amount of IKBKAP protein vs DMSO vehicle control)” value was “* (An EC2x>1 μM is indicated by one star (*))” and the “MFI (maximum fold increase in IKBKAP protein abundance relative to the vehicle control)” value was “* (An MFI≤1.9 is indicated by one star (*))”.
`C[C@H](N)Cc1c(F)c2c(NCc3cccnc3)nc(Cl)nc2n1C.Cl.Cl` [Cpd 57, 6-[(2S)-2-aminopropyl]-2-chloro-5-fluoro-7-methyl-N-[(pyridin-3-yl)methyl]-7H-pyrrolo[2,3-d]pyrimidin-4-amine dihydrochloride] was tested, and the “EC2x for IKBKAP protein expression (concentration producing two times the amount of IKBKAP protein vs DMSO vehicle control)” value was “* (An EC2x>1 μM is indicated by one star (*))” and the “MFI (maximum fold increase in IKBKAP protein abundance relative to the vehicle control)” value was “* (An MFI≤1.9 is indicated by one star (*))”.
In the case of `CC[C@H](N)Cc1[nH]c2nc(Cl)nc(NCc3cccs3)c2c1F.Cl` [Cpd 58, 6-[(2S)-2-aminobutyl]-2-chloro-5-fluoro-N-[(thiophen-2-yl)methyl]-7H-pyrrolo[2,3-d]pyrimidin-4-amine hydrochloride], the “EC2x for IKBKAP protein expression (concentration producing two times the amount of IKBKAP protein vs DMSO vehicle control)” value is reported as “*** (between >0.02 μM and ≤0.5 μM is indicated by three stars (***))” and the “MFI (maximum fold increase in IKBKAP protein abundance relative to the vehicle control)” value is reported as “**** (between >3.9 and ≤4.9 is indicated by four stars (****))”.
With `CC[C@H](N)Cc1[nH]c2nc(Cl)nc(NCc3nccs3)c2c1F.Cl` [Cpd 59, 6-[(2S)-2-aminobutyl]-2-chloro-5-fluoro-N-[(1,3-thiazol-2-yl)methyl]-7H-pyrrolo[2,3-d]pyrimidin-4-amine hydrochloride] the “EC2x for IKBKAP protein expression (concentration producing two times the amount of IKBKAP protein vs DMSO vehicle control)” value was “*** (between >0.02 μM and ≤0.5 μM is indicated by three stars (***))” and the “MFI (maximum fold increase in IKBKAP protein abundance relative to the vehicle control)” value was “***** (>4.9 is indicated by five stars (*****))”.
With `C[C@@H](N)Cc1c(F)c2c(NCc3ccco3)nc(Cl)nc2n1C.Cl` [Cpd 60, 6-[(2R)-2-aminopropyl]-2-chloro-5-fluoro-N-[(furan-2-yl)methyl]-7-methyl-7H-pyrrolo[2,3-d]pyrimidin-4-amine hydrochloride] the “EC2x for IKBKAP protein expression (concentration producing two times the amount of IKBKAP protein vs DMSO vehicle control)” value was “* (An EC2x>1 μM is indicated by one star (*))” and the “MFI (maximum fold increase in IKBKAP protein abundance relative to the vehicle control)” value was “* (An MFI≤1.9 is indicated by one star (*))”.
`C[C@H](N)Cc1cc2c(NCc3cscn3)nc(Cl)nc2[nH]1` [Cpd 61, 6-[(2S)-2-aminopropyl]-2-chloro-N-[(1,3-thiazol-4-yl)methyl]-7H-pyrrolo[2,3-d]pyrimidin-4-amine] was tested, and the “EC2x for IKBKAP protein expression (concentration producing two times the amount of IKBKAP protein vs DMSO vehicle control)” value was “* (An EC2x>1 μM is indicated by one star (*))” and the “MFI (maximum fold increase in IKBKAP protein abundance relative to the vehicle control)” value was “* (An MFI≤1.9 is indicated by one star (*))”.
For `C[C@H](N)Cc1[nH]c2nc(Br)nc(NCc3ccco3)c2c1F` [Cpd 62, 6-[(2S)-2-aminopropyl]-2-bromo-5-fluoro-N-[(furan-2-yl)methyl]-7H-pyrrolo[2,3-d]pyrimidin-4-amine], the “EC2x for IKBKAP protein expression (concentration producing two times the amount of IKBKAP protein vs DMSO vehicle control)” value was “**** (between >0.005 μM and ≤0.02 μM is indicated by four stars (****))” and the “MFI (maximum fold increase in IKBKAP protein abundance relative to the vehicle control)” value was “***** (>4.9 is indicated by five stars (*****))”.
